Assay results as given in US9394289B2, “Inhibitors of c-fms kinase” (Janssen Pharmaceutica NV, priority 2006, dated 2016).
Like-named read-outs stand apart in the source and are kept apart here.

How the values were obtained:
[1] = target: c-fms (Homo sapiens (Human), UniProt P07333); assay: Autophosphorylation fluorescence polarization competition immunoassay for c-fms inhibition; format: biochemical; conditions: averages of three independent measurements; table head says 1 nM c-fms, method says 10 nM c-fms, 1 mM ATP; read-out: 1 nM c-fms; peptide Pi assay IC-50
Description: Fluorescence Polarization Competition Immunoassay
The assay buffer used was 100 mM 4-(2-hydroxyethyl)piperazine 1-ethanesulfonic acid (HEPES), pH 7.5, 1 mM 1,4-dithio-DL-threitol (DTT), 0.01% (v/v) Tween-20. Compounds were diluted in assay buffer containing 4% dimethylsulfoxide (DMSO) just prior to the assay. To each well, 5 μL of compound were added followed by the addition of 3 μL of a mix containing 33 nM c-fms (Johnson & Johnson PRD) and 16.7 mM MgCl2 (Sigma) in assay buffer. The kinase reaction was initiated by adding 2 μL of 5 mM ATP (Sigma) in assay buffer. […] Control reactions were ran in each plate: in positive and negative control wells, assay buffer (made 4% in DMSO) was substituted for the compound; in addition, positive control wells received 1.2 μL of 50 mM ethylenediaminetetraaceticacid (EDTA).
The plates were incubated at room temperature for 45 min. At the end of the incubation, the reaction was quenched with 1.2 μL of 50 mM EDTA (EDTA was not added to the positive control wells at this point; see above). Following a 5-min incubation, each well received 10 μL of a 1:1:3 mixture of anti-phosphotyrosine antibody, 10×, PTK green tracer, 10× (vortexed), FP dilution buffer, respectively (all from PanVera, cat. #P2837). The plate was covered, incubated for 30 min at room temperature and the fluorescence polarization was read on the Analyst. The instrument settings were: 485 nm excitation filter; 530 nm emission filter; Z height: middle of well; G factor: 0.93. […] The reported IC50 values are averages of three independent measurements.

[2] = tested on: mouse bone-marrow derived macrophages (BMDM); assay: CSF-1-driven mouse bone-marrow derived macrophages proliferation assay (BrDU incorporation); format: cell-based; conditions: 30 hrs culture, read-out: mCSF driven proliferation BMDM (Mouse) IC-50
Description: CSF-1-Driven Mouse Bone-Marrow Derived Macrophages Assay
Macrophages are derived by culturing mouse bone marrow in alpha-MEM supplemented with 10% FCS and 50 ng/ml recombinant mouse CSF-1 in bacteriologic dishes. On the sixth day, macrophages are detached from dishes, washed, and resuspended to 0.05 million cells/ml in alpha-MEM containing 10% FCS. One hundred ul of cell suspension are distributed per well into 96 well culture plates. Wells are further supplemented with the addition of 50 ul media containing 15 ng/ml CSF-1, 3 uM Indomethacin, and 3× of a dilution series of test compounds. The cells are cultured for 30 hrs at 37 degrees and 5% CO2. During the final six hours, cultures are supplemented with an additional 30 ul of media containing a 1:500 dilution of bromodeoxyuridine (BrDU). At the end of the culture period, the plates are spun at 1000 RPM for 1 minute and 130 ul of media is removed with a pipet and replaced with 150 ul of fixative solution for 1 hour @ room temperature. The fixative is then dispelled from the plates and the plates allowed to air dry. Incorporation of BrDU into the fixed, dried cells is quantified using a specific ELISA.

Chain of c-fms (P07333 20-972): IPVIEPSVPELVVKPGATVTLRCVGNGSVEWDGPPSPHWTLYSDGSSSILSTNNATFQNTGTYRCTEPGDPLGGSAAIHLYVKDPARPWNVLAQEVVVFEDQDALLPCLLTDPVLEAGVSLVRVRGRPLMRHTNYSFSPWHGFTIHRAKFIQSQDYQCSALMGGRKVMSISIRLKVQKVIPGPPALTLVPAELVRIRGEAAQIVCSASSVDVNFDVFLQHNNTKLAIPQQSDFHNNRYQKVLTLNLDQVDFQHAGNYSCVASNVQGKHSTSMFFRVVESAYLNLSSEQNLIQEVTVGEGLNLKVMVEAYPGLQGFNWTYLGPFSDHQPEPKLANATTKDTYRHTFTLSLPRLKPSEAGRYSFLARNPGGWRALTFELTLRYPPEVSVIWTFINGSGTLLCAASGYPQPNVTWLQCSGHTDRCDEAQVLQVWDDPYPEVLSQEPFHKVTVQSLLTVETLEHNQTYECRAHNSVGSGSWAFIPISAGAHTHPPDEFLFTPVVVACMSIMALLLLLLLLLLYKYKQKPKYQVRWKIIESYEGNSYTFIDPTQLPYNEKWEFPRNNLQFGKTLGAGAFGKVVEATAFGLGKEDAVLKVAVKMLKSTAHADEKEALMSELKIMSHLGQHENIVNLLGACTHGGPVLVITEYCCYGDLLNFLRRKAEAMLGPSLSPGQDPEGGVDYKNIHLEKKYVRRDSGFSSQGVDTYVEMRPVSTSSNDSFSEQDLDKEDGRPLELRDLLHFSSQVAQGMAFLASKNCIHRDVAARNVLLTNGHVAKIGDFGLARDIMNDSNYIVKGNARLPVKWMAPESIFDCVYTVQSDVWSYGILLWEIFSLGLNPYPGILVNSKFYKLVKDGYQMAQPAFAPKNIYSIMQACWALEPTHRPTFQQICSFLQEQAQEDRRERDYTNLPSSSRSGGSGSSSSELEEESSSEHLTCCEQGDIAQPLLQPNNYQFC

| SMILES | IC50 [1] [nM] | IC50 ([2]; Mus musculus, BMDM) [nM] | IC50 [2] [nM] |
| --- | --- | --- | --- |
| CC1(C)CC=C(c2cc(C3(C(N)=O)CCOCC3)ccc2NC(=O)c2nc(C#N)c[nH]2)CC1 [Example 24, 4-Cyano-1H-imidazole-2-carboxylic acid [4-(4-carbamoyl-tetrahydro-pyran-4-yl)-2-(4,4-dimethyl-cyclohex-1-enyl)-phenyl]-amide] | 0.8 | 14 | – |
| CC1(C)CC=C(c2cc(C3(CO)CCOCC3)ccc2NC(=O)c2nc(C#N)c[nH]2)CC1 [Example 25, 4-Cyano-1H-imidazole-2-carboxylic acid [2-(4,4-dimethyl-cyclohex-1-enyl)-4-(4-hydroxymethyl-tetrahydro-pyran-4-yl)-phenyl]-amide] | 0.49 | 6.5 | – |
| CC1(C)CC=C(c2cc(C3(CN4CCOCC4)CCOCC3)ccc2NC(=O)c2nc(C#N)c[nH]2)CC1 [Example 26, 4-Cyano-1H-imidazole-2-carboxylic acid [2-(4,4-dimethyl-cyclohex-1-enyl)-4-(4-morpholin-4-ylmethyl-tetrahydro-pyran-4-yl)-phenyl]-amide] | 3 | 5.3 | – |
| N#Cc1c[nH]c(C(=O)Nc2ccc(C3(O)CCOCC3)cc2C2=CCCCC2)n1 [Example 27, 4-Cyano-1H-imidazole-2-carboxylic acid [2-cyclohex-1-enyl-4-(4-hydroxy-tetrahydro-pyran-4-yl)-phenyl]-amide] | 2.9 | 4.5 | – |
| CN(C)C(=O)C1(c2ccc(NC(=O)c3nc(C#N)c[nH]3)c(C3=CCCCC3)c2)CCOCC1 [Example 28, 4-Cyano-1H-imidazole-2-carboxylic acid [2-cyclohex-1-enyl-4-(4dimethylcarbamoyl-tetrahydro-pyran-4-yl)-phenyl]-amide] | 8.4 | 28 | – |
| CN(C)C(=O)C1(c2ccc(NC(=O)c3nc(C#N)c[nH]3)c(C3=CCC(C)(C)CC3)c2)CCOCC1 [Example 29, 4-Cyano-1H-imidazole-2-carboxylic acid [4-(4-dimethylcarbamoyl-tetrahydro-pyran-4-yl)-2-(4,4-dimethyl-cyclohex-1-enyl)-phenyl]-amide] | 1.6 | 11 | – |
| C[C@@H]1CC(O)(c2ccc(NC(=O)c3nc(C#N)c[nH]3)c(C3=CCC(C)(C)CC3)c2)C[C@H](C)O1 (stereo partly drawn) [Example 30, 4-Cyano-1H-imidazole-2-carboxylic acid [2-(4,4-dimethyl-cyclohex-1-enyl)-4-(cis-4-hydroxy-cis-2,6-dimethyl-tetrahydro-pyran-4-yl)-phenyl]-amide] | 3.2 | – | 7 |
| C[C@@H]1CC(O)(c2ccc(NC(=O)c3nc(C#N)c[nH]3)c(C3=CCC(C)(C)CC3)c2)C[C@H](C)O1 (stereo partly drawn) [Example 31, 4-cyano-1H-imidazole-2-carboxylic acid [2-(4,4-dimethyl-cyclohex-1-enyl)-4-(trans-4-hydroxy-cis-2,6-dimethyl-tetrahydro-pyran-4-yl)-phenyl]-amide] | 1.4 | – | 3 |
| C[C@@H]1CC(O)(c2ccc(NC(=O)c3nc(C#N)c[nH]3)c(C3=CCC(C)(C)CC3)n2)C[C@H](C)O1 (stereo partly drawn) [Example 32, 4-Cyano-1H-imidazole-2-carboxylic acid [2-(4,4-dimethyl-cyclohex-1-enyl)-6-(4-hydroxy-Cis-2,6-dimethyl-tetrahydro-pyran-4-yl)-pyridin-3-yl]-amide] | 3.2 | 19 | – |
| CC1(C)CC=C(c2nc(C3(O)CCOCC3)ccc2NC(=O)c2nc(C#N)c[nH]2)CC1 [Example 33, 4-Cyano-1H-imidazole-2-carboxylic acid [2-(4,4-dimethyl-cyclohex-1-enyl)-6-(4-hydroxy-tetrahydro-pyran-4-yl)-pyridin-3-yl]-amide] | 3.7 | 33 | – |
| CS(=O)(=O)C1(c2ccc(NC(=O)c3ncc(C#N)[nH]3)c(C3=CCCCC3)c2)CCOCC1 [Example 34, 5-Cyano-1H-imidazole-2-carboxylic acid [2-cyclohex-1-enyl-4-(4-methanesulfonyl-tetrahydro-pyran-4-yl)-phenyl]-amide] | 1.5 | 17.2 | – |
| CC(=O)N1CCC(O)(c2ccc(NC(=O)c3nc(C#N)c[nH]3)c(C3=CCC(C)(C)CC3)c2)CC1 [Example 35, 4-Cyano-1H-imidazole-2-carboxylic acid [4-(1-acetyl-4-hydroxy-piperidin-4-yl)-2-(4,4-dimethyl-cyclohex-1-enyl)-phenyl]-amide] | 0.7 | 5.8 | – |
| CC1(C)CC=C(c2cc(C3(C#N)CCS(=O)(=O)CC3)ccc2NC(=O)c2nc(C#N)c[nH]2)CC1 [Example 87, 4-Cyano-1H-imidazole-2-carboxylic acid [4-(4-cyano-1,1-dioxo-hexahydro-1λ^6-thiopyran-4-yl)-2-(4,4-dimethyl-cyclohex-1-enyl)-phenyl]-amide] | 1.1 | 8.2 | – |
| CC1(C)CC=C(c2cc(C3(O)CC(C)(C)OC(C)(C)C3)ccc2NC(=O)c2nc(C#N)c[nH]2)CC1 [Example 88, 4-Cyano-1H-imidazole-2-carboxylic acid [2-(4,4-dimethyl-cyclohex-1-enyl)-4-(4-hydroxy-2,2,6,6-tetramethyl-tetrahydro-pyran-4-yl)-phenyl]-amide] | 2.4 | 6.4 | – |
| CON1C(C)(C)CC(O)(c2ccc(NC(=O)c3nc(C#N)c[nH]3)c(C3=CCC(C)(C)CC3)c2)CC1(C)C [Example 89, 4-Cyano-1H-imidazole-2-carboxylic acid [2-(4,4-dimethyl-cyclohex-1-enyl)-4-(4-hydroxy-1-methoxy-2,2,6,6-tetramethyl-piperidin-4-yl)-phenyl]-amide] | 13 | 20 | – |
| CC1(C)CC=C(c2cc(C3(O)CCN(CC(F)(F)F)CC3)ccc2NC(=O)c2nc(C#N)c[nH]2)CC1 [Example 90, 4-Cyano-1H-imidazole-2-carboxylic acid {2-(4,4-dimethyl-cyclohex-1-enyl)-4-[4-hydroxy-1-(2,2,2-trifluoro-ethyl)-piperidin-4-yl]-phenyl}-amide] | 6.5 | 40 | – |
| CC1(C)CC=C(c2cc(C3(O)CC(C)(C)N(CC(F)(F)F)C(C)(C)C3)ccc2NC(=O)c2nc(C#N)c[nH]2)CC1 [Example 91, 4-Cyano-1H-imidazole-2-carboxylic acid {2-(4,4-dimethyl-cyclohex-1-enyl)-4-[4-hydroxy-2,2,6,6-tetramethyl-1-(2,2,2-trifluoro-ethyl)-piperidin-4-yl]-phenyl}-amide] | ~210 | 61 | – |
| CC1(C)CC=C(c2cc(C3(O)CC4CCC(C3)O4)ccc2NC(=O)c2nc(C#N)c[nH]2)CC1 (stereo not drawn) [Example 92, 4-Cyano-1H-imidazole-2-carboxylic acid [2-(4,4-dimethyl-cyclohex-1-enyl)-4-(3-hydroxy-8-oxa-bicyclo[3.2.1]oct-3-yl)-phenyl]-amide] | 2.2 | 12 | – |
| CC1(C)CC=C(c2cc(C3(O)CC4(C)CCC(C)(C3)O4)ccc2NC(=O)c2nc(C#N)c[nH]2)CC1 (stereo not drawn) [Example 93, 4-Cyano-1H-imidazole-2-carboxylic acid [2-(4,4-dimethyl-cyclohex-1-enyl)-4-(3-hydroxy-1,5-dimethyl-8-oxa-bicyclo[3.2.1]oct-3-yl)-phenyl]-amide] | 2.9 | 8.9 | – |
| CC1(C)CC=C(c2cc(C3(C#N)C[C@]4(C)CC[C@](C)(C3)O4)ccc2NC(=O)c2nc(C#N)c[nH]2)CC1 (stereo partly drawn) [Example 94, 4-Cyano-1H-imidazole-2-carboxylic acid [4-(3-cyano-1,5-dimethyl-8-oxa-bicyclo[3.2.1]oct-3-yl)-2-(4,4-dimethyl-cyclohex-1-enyl)-phenyl]-amide] | 82 | > 100 | – |
| CC1(C)CC=C(c2cc(C3(C#N)CC(C)(C)OC(C)(C)C3)ccc2NC(=O)c2nc(C#N)c[nH]2)CC1 [Example 95, 4-Cyano-1H-imidazole-2-carboxylic acid [4-(4-cyano-2,2,6,6-tetramethyl-tetrahydro-pyran-4-yl)-2-(4,4-dimethyl-cyclohex-1-enyl)-phenyl]-amide] | 26 | 29 | – |
